Test results from paper PMC6321145 (Molecules, 2018).

How the values were obtained:
Aβ1–42 [1] = target: T1, Aβ1–42 (Homo sapiens, UniProt P05067); experiment: Inhibition of Cu^2+-induced Aβ1–42 aggregation (ThT-binding assay); format: biochemical; conditions: [Aβ] = 20 μM, [Cu^2+] = 20 μM, [compound] = 40 μM; 37 °C, 24 h
T1 construct: Aβ1–42 (Sigma, St. Louis, MO, USA; counterion, NaOH) stock solution was prepared by dissolving Aβ1–42 peptide in ammonium hydroxide; purchased Sigma
Experimental: To investigate the ability of compound 6b1 to inhibit Cu^2+-induced Aβ1–42 aggregation, the ThT-binding assay was performed.
Aβ was diluted in […] (pH 6.6) with […]. The mixture of the peptide (10 μL, 20 μM, final concentration) with or without copper (10 μL, 20 μM, final concentration) and the test compound (10 μL, 40 μM, final concentration) was incubated at 37 °C for 24 h. The 30 μL of the sample was diluted to a final volume of 200 μL with 50 mM glycine-NaOH buffer (pH 8.0) containing thioflavin T (5 μM). The detection method was the same as that of self-induced Aβ aggregation experiment.

Aβ1–42 [2] = target: T1, Aβ1–42; experiment: Inhibition of self-induced Aβ1–42 aggregation (ThT fluorescence assay); format: biochemical; conditions: inhibitor 20 μM; Aβ1–42 50 μM; ThT; 37 °C, 72 h; mean ± SD
Experimental: The formation and aggregation of Aβ1–42 in the brain leads to neurotoxicity in AD. In order to evaluate the activity of our new synthetic compounds to inhibit Aβ1–42 self-induced aggregation, the thioflavin (ThT) fluorescence assay was performed.
All ThT experiments were performed according to our previously published methods. Aβ1–42 (Sigma, St. Louis, MO, USA; counterion, NaOH) stock solution was prepared by dissolving Aβ1–42 peptide in ammonium hydroxide (1% v/v), and diluting with 20 mM phosphate buffer (pH 7.4) to 100 μM. The tested compounds were firstly dissolved in DMSO at a concentration of 10 mM, and then diluted with 20 mM phosphate buffer (pH 7.4) to 40 μM.
For the inhibition of self-induced Aβ1–42 aggregation. Aβ1–42 peptide (2 μL, 50 μM, final concentration) with the tested compound (2 μL, 20 μM, final concentration) or 20 mM phosphate buffer (2 μL) was incubated in 20 mM phosphate buffer (pH 7.4) at 37 °C for 72 h. After incubation, the samples were diluted to a final volume of 36 μL with 50 mM glycine-NaOH buffer (pH 8.5) containing 5 μM Thioflavin T. Fluorescence signal was measured (excitation wavelength 450 nm, emission wavelength 485 nm, and slit widths set to 5 nm) on a monochromator-based multimode microplate reader ([…] M1000, TECAN, Hombrechtikon, Switzerland), adapted for 384-well microtiter plates. […] Each compound was examined in triplicate.

[3] = Cytotoxicity on SH-SY5Y cells (MTT); format: cell-based, human; conditions: human, SH-SY5Y neuroblastoma cells; MTT, 24 h; mean ± SEM of three measurements
Experimental: The cytotoxicity of our synthesized compounds was examined in human neuroblastoma SH-SY5Y cells. The cell viability was determined by using methyl thiazolyl tetrazolium (MTT) colorimetry, the cells were treated with different concentrations of compounds (0–100 μM). The result is shown in the Supplementary Materials (Table S1).
The cytotoxicities of the compounds were evaluated using the MTT assay. SH-SY5Y cells were subcultured in 96-well plates at a seeding density of 1 × 10^4 cells per well. After 24 h, the medium was removed and treated with different concentrations of tested compounds for 24 h at 37 °C. The survival of cells was determined with MTT assay. Then 80 μL of medium and 20 μL of MTT (0.5 mg/mL, final concentration) were added to each well and incubated for another 4 h. After the removal of MTT, the formazan crystals were dissolved in DMSO. The amount of formazan was measured using a microculture plate reader at the wavelength of 570 nm. Each concentration was performed in triplicate.

SH-SY5Y cells = experiment: Cellular ROS detection (DCFH-DA) in SH-SY5Y cells treated with t-BuOOH; format: cell-based, human; conditions: compound 2.5 μM; 0.1 mM t-BuOOH; compared with Trolox
Experimental: To further investigate their antioxidant activity in SH-SY5Y cells, cellular ROS detection assay based on dichlorofluorescein diacetate (DCFH-DA) was performed. with Trolox and N-acetyl-L-cysteine (NAC) as reference compounds.
SH-SY5Y cells were maintained in Dulbecco’s modified Eagle’s medium (DEME) and supplemented with 1 mM glutamine, 10% fetal calf serum, 100 U/mL penicillin, and 100 μg/mL streptomycin. The cultures were maintained at 37 °C in a humidified incubator containing 5% CO2 and were passaged twice weekly.
The antioxidant activity of the compounds in SH-SY5Y cells were tested with the fluorescent probe (2′,7′-dichlorofluorescein diacetate, DCFH-DA) as reported with some variation. SH-SY5Y cells were sub-cultured in 96-well plates at a seeding density of 1 × 10^4 cells per well for 24 h, then the medium was removed, the tested compounds (2.5 μM) was added and incubated for another 24 h at 37 °C. After that, the cells were washed with PBS and incubated with 5 μM DCFH-DA in PBS at 37 °C in 5% CO2 for 30 min. Then DCFH-DA was removed, the cells were washed three times and incubated with 0.1 mM t-BuOOH in PBS for 30 min. After the incubation, the cell fluorescence from each well was measured at 485 nm excitation and 535 nm emission with a monochromator based multimode microplate reader ([…] M1000).

[4] = Oxygen radical absorbance capacity with fluorescein (ORAC-FL) assay
Experimental: Oxidative stress is another crucial event in AD pathogenesis. In order to determine antioxidant activities of our synthetic compounds, the oxygen radical absorbance capacity method with fluorescein (ORAC-FL) assay was performed. with Trolox (6-hydroxy-2,5,7,8-tetramethylchroman-2-carboxylic acid) as the standard, and their antioxidant activity was expressed as Trolox equivalents.
The antioxidant activities of the compounds in vitro were determined by the oxygen radical absorbance capacity fluorescein (ORAC-FL) assay. The tested compounds and (±)-6-hydroxy-2,5,7,8-tetramethylchroman-2-carboxylic acid (Trolox) were dissolved in DMSO at a concentration of 10 mM, and then diluted with 75 mM potassium phosphate buffer (pH 7.4) to 50 μM and 10 μM for use. The fluorescein (FL) stock solution (3.4 mM) was diluted with the same buffer to 136 nM. All the assays were conducted with 75 mM potassium phosphate bufffer (pH 7.4), and the final reaction mixture was 200 μL.
The mixture of compounds (or buffer) (20 μL) and fluorescein (FL, 120 μL) were incubated for 15 min at 37 °C in a black 96-well plate. Then 2,2′-azobis-(amidino-propane)-dihydrochloride (AAPH) solution (60 μL, 40 mM) was rapidly added to the reaction mixture. The fluorescence was recorded every 5 min for 240 min at 485 nm (excitation wavelength) and 535 nm (emission wavelength) (Varioskan Flash Multimode Reader, Thermo Scientific, Waltham, MA, USA), and each sample was prepared and measured for three times independently. […] The net AUC for a sample was calculated using the expression net AUC = AUCsample − AUCblank, The ORAC-FL value of each sample was calculated using the equation of net AUCsample/(AUCTrolox – AUCblank), which was expressed as Trolox equivalents.

Aβ1–42 fibrils = target: T2, Aβ1–42 fibrils (Homo sapiens, UniProt P05067); experiment: TEM assay of Aβ1–42 fibrils; format: biochemical; conditions: compound 20 μM; 37 °C, 24 h
T2 construct: Aβ1–42 (Sigma, St. Louis, MO, USA; counterion, NaOH) stock solution was prepared by dissolving Aβ1–42 peptide in ammonium hydroxide; purchased Sigma
T2 sequence (P05067 672-713): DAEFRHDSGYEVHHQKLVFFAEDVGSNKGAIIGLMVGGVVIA
Experimental: To further complement the ThT binding assay, A transmission electron microscopy (TEM) assay was employed to monitor and clarify the effect of compound 6b1 on Aβ1−42 aggregation.
The ability of compound 6b1 to disaggregate self-induced Aβ1–42 aggregation fibrils was also investigated. Aβ1–42 fibrils were prepared by incubating fresh Aβ1–42 for 24 h at 37 °C, and the test compound was added to the sample and incubated for another 24 h at 37 °C. Then the sample was analyzed by ThT binding assay and TEM assay.
Aβ1–42 peptide (Sigma) was dissolved in 20 mM phosphate buffer (pH 7.4) at 4 °C to 100 μM before use.
Aβ1–42 was incubated at 37 °C for 24 h. Then, 40 μM tested compound was added and incubated at 37 °C for another 24 h. The final concentrations of Aβ1–42 and the compounds were 50 μM and 20 μM, respectively. After incubation, aliquots (5 μL) of the samples were placed on a carbon-coated copper/rhodium grid for 2 min at room temperature. Each grid was stained with uranyl acetate (1%, 5 μL) for 2 min. Excess staining solution was removed and the specimen was transferred for imaging with transmission electron microscopy (JEOL JEM-1400, Tokyo, Japan).

T1 sequence (P05067 672-713): as above

SMILES | Inhibition of Cu^2+-induced Aβ aggregation (Aβ1–42 [1]) [%] | inhibition at 20 µM (Aβ1–42 [2]) [%] | IC50 at 24 h [3] [µM] | Antioxidant activity in SH-SY5Y cells (ROS generation, DCFH-DA fluorescence) (SH-SY5Y cells) | melting point [°C] | ORAC ([4]; compound 1 μM) | ORAC ([4]; compound 5 μM) | TEM: Aβ1–42 fibril formation in presence of compound (Aβ1–42 fibrils)
Oc1c(I)cc(Cl)c2cccnc12 [CQ, clioquinol] | 83.6 | – | – | – | – | – | – | –
CCN(CC)CCCNc1cc(/C=C/c2ccc(N3CCOCC3)cc2)nc2ccccc12 [Compound 6a4, (E)-N^1,N^1-Diethyl-N^3-(2-(4-morpholinostyryl)quinolin-4-yl)propane-1,3-diamine] | – | 87.9 ± 1.1 | 145.2 ± 0.9 | a little weaker antioxidant activity than Trolox | 172.5 to 174.3 | 4.16 ± 0.04 μmol of Trolox equivalents/μmol of tested compounds | 4.52 ± 0.03 μmol of Trolox equivalents/μmol of tested compounds | –
CN(C)CCCNc1cc(/C=C/c2c[nH]c3ccccc23)nc2ccccc12 [Compound 6b3, (E)-N^1-(2-(2-(1H-Indol-3-yl)vinyl)quinolin-4-yl)-N^3,N^3-dimethylpropane-1,3-diamine] | – | 87.2 ± 2.1 | 168.1 ± 0.2 | a little weaker antioxidant activity than Trolox | 168.2 to 169.5 | 3.96 ± 0.08 μmol of Trolox equivalents/μmol of tested compounds | 4.21 ± 0.08 μmol of Trolox equivalents/μmol of tested compounds | –
Oc1ccc(/C=C/c2cc(O)cc(O)c2)cc1 [Res, resveratrol, reference compound] | 71.2 | 77.2 ± 1.1 | – | – | – | – | – | a few thick fibrils
